Laboratory results as given in ChEMBL document CHEMBL1201862, “PubChem BioAssay data set” (2004).
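Each compound was tested at five concentrations against cells in 96-well plates for 48 hours. GI50 = concentration required for 50% inhibition of growth.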 Active and inactive are the calls of the source. No stated cut-off is given here; in the data, active = GI50 up to about 1.1 µM and inactive = higher.

What was measured:
Experiment in all cases: growth of human tumour cells (NCI), 48 h
[1] = test system: CAKI-1
[2] = test system: IGROV-1
[3] = test system: MCF7
[4] = test system: Malme-3M
[5] = test system: NCI/ADR-RES
[6] = test system: RPMI-8226
[7] = test system: SF-268
[8] = test system: SF-295
[9] = test system: SK-MEL-28
[10] = test system: SNB-19
[11] = test system: SNB-75
[12] = test system: U-251
[13] = test system: UO-31
[14] = test system: NCI-H23
[15] = test system: UACC-257
[16] = test system: BT-549
[17] = test system: DU-145
[18] = test system: MDA-MB-435
[19] = test system: SR
[20] = test system: T47D

Structure (SMILES)	GI50 [1]	GI50 [2]	GI50 [3]	GI50 [4]	GI50 [5]	GI50 [6]	GI50 [7]	GI50 [8]	GI50 [9]	GI50 [10]	GI50 [11]	GI50 [12]	GI50 [13]	GI50 [14]	GI50 [15]	GI50 [16]	GI50 [17]	GI50 [18]	GI50 [19]	GI50 [20]
O=c1cc(O)ccn1C1C=C(CO)C(O)C1O (stereo not drawn)	> 625 µM (inactive)	> 625 µM (inactive)	> 625 µM (inactive)	> 625 µM (inactive)	> 625 µM (inactive)	411 µM (inactive)	> 625 µM (inactive)	> 625 µM (inactive)	> 625 µM (inactive)	> 625 µM (inactive)	> 625 µM (inactive)	> 625 µM (inactive)	> 625 µM (inactive)							
N#C/C(=C\c1ccc(C(O)P(=O)(O)O)cc1)C(N)=O (stereo not drawn)		> 100 µM (inactive)		> 100 µM (inactive)		> 100 µM (inactive)	> 100 µM (inactive)	> 100 µM (inactive)	> 100 µM (inactive)	> 100 µM (inactive)		60.5 µM (inactive)	> 100 µM (inactive)	> 100 µM (inactive)	> 100 µM (inactive)					
O=C1c2ccccc2C(=O)c2c(OCCOCCO)cccc21	21.9 µM (inactive)	45.5 µM (inactive)	74.6 µM (inactive)	74.3 µM (inactive)	> 100 µM (inactive)		44.9 µM (inactive)	96.6 µM (inactive)	> 100 µM (inactive)	> 100 µM (inactive)	> 100 µM (inactive)	> 100 µM (inactive)	38.9 µM (inactive)	> 100 µM (inactive)	> 100 µM (inactive)	> 100 µM (inactive)	> 100 µM (inactive)	> 100 µM (inactive)	66.7 µM (inactive)	49.4 µM (inactive)
CCOC(=O)CCC(NC(=O)c1ccc(Nc2nc3cc(C(F)(F)F)ccc3nc2C(=O)OCC)cc1)C(=O)OCC (stereo not drawn)		17.1 µM (inactive)	> 10 µM (inactive)		12.2 µM (inactive)	24.9 µM (inactive)	14.1 µM (inactive)	5.74 µM (inactive)	12.1 µM (inactive)	10.7 µM (inactive)		11.3 µM (inactive)	11.6 µM (inactive)	16 µM (inactive)	11 µM (inactive)	16.3 µM (inactive)	78.9 µM (inactive)	6.87 µM (inactive)	> 100 µM (inactive)	6.25 µM (inactive)
COc1cc[n+](C)cc1		> 100 µM (inactive)	> 100 µM (inactive)	> 100 µM (inactive)	> 100 µM (inactive)	> 100 µM (inactive)	> 100 µM (inactive)	> 100 µM (inactive)	> 100 µM (inactive)	> 100 µM (inactive)	> 100 µM (inactive)	> 100 µM (inactive)	> 100 µM (inactive)	> 100 µM (inactive)	> 100 µM (inactive)					
CN1CC(c2ccccc2)N(CCCCN2CC(c3ccccc3)N(C)CC2c2ccccc2)CC1c1ccccc1 (stereo not drawn)	> 100 µM (inactive)	45 µM (inactive)	68.7 µM (inactive)	31.7 µM (inactive)	53.8 µM (inactive)		> 100 µM (inactive)	34.8 µM (inactive)	> 100 µM (inactive)	54.7 µM (inactive)	29.4 µM (inactive)		57.9 µM (inactive)		13.5 µM (inactive)	37 µM (inactive)	36.2 µM (inactive)	36.1 µM (inactive)	68.5 µM (inactive)	
O=c1[nH]c2ccccc2n1CCCN1CCC(n2c(=O)[nH]c3cc(Cl)ccc32)CC1 [DOMPERIDONE]	15.7 µM (inactive)	19.2 µM (inactive)	18 µM (inactive)	17.5 µM (inactive)	23.3 µM (inactive)	20.1 µM (inactive)			17 µM (inactive)				4.7 µM (inactive)	17.3 µM (inactive)	16.9 µM (inactive)	18 µM (inactive)	19 µM (inactive)	16.2 µM (inactive)		16.3 µM (inactive)
Cc1c(/C=N/NC(=O)c2ccccc2O)c(=O)n(-c2ccccc2)n1C		> 100 µM (inactive)		> 100 µM (inactive)		48.2 µM (inactive)	> 100 µM (inactive)	> 100 µM (inactive)	> 100 µM (inactive)	> 100 µM (inactive)	> 100 µM (inactive)	> 100 µM (inactive)	54.7 µM (inactive)	> 100 µM (inactive)	> 100 µM (inactive)				45.8 µM (inactive)	
CC(=O)C(/N=N\C1CCC(S(=O)(=O)NB2N=CS2)CC1)C(=O)Nc1ccccc1C (stereo not drawn)	23.1 µM (inactive)	17.4 µM (inactive)		16 µM (inactive)		31.1 µM (inactive)	14.7 µM (inactive)	17 µM (inactive)	15.4 µM (inactive)	16.5 µM (inactive)	17.5 µM (inactive)	13.7 µM (inactive)	18.8 µM (inactive)	13.6 µM (inactive)	17.9 µM (inactive)				43.7 µM (inactive)	
COc1ccc(-c2c(-c3ccccc3)c(C)nc3nc(SC)nc(SC)c23)cc1OC	0.764 µM (active)	30 µM (inactive)	10.6 µM (inactive)	10.1 µM (inactive)		2.82 µM (inactive)	24 µM (inactive)	7.55 µM (inactive)	22.8 µM (inactive)	26.7 µM (inactive)	16.1 µM (inactive)	9.1 µM (inactive)	3.79 µM (inactive)	28.8 µM (inactive)	21.5 µM (inactive)	24.8 µM (inactive)	15.5 µM (inactive)	8.17 µM (inactive)	0.565 µM (active)	13 µM (inactive)
COc1ccc(C(CC(=O)c2cccs2)C(=O)c2ccc3c(c2)OCO3)cc1 (stereo not drawn)	> 100 µM (inactive)	> 100 µM (inactive)	> 100 µM (inactive)	97.7 µM (inactive)	> 100 µM (inactive)	59.8 µM (inactive)	> 100 µM (inactive)		> 100 µM (inactive)		> 100 µM (inactive)	> 100 µM (inactive)		> 100 µM (inactive)	> 100 µM (inactive)		> 100 µM (inactive)	> 100 µM (inactive)		69.5 µM (inactive)
CCOP(=O)(OCC)C(Cc1ccc(OC)c(OC)c1)N=C(c1ccccc1)c1ccccc1 (stereo not drawn)	67 µM (inactive)	45.2 µM (inactive)	24.7 µM (inactive)		44.7 µM (inactive)	18.8 µM (inactive)	> 100 µM (inactive)	26.2 µM (inactive)	45.3 µM (inactive)	63 µM (inactive)	27.5 µM (inactive)	46.1 µM (inactive)	40.4 µM (inactive)	41.6 µM (inactive)	56.8 µM (inactive)	> 100 µM (inactive)	37.2 µM (inactive)	71 µM (inactive)	6.84 µM (inactive)	20.5 µM (inactive)
COC(=O)[C@@H](NC1(c2ccccc2)c2ccccc2-c2ccccc21)[C@@H](C(=O)OC)N(NC(=O)OCc1ccccc1)C(=O)OCc1ccccc1.COC(=O)[C@@H](NC1(c2ccccc2)c2ccccc2-c2ccccc21)[C@H](C(=O)OC)N(NC(=O)OCc1ccccc1)C(=O)OCc1ccccc1	> 100 µM (inactive)	> 100 µM (inactive)	> 100 µM (inactive)	27.4 µM (inactive)	> 100 µM (inactive)	> 100 µM (inactive)	> 100 µM (inactive)	> 100 µM (inactive)	> 100 µM (inactive)	> 100 µM (inactive)		33.8 µM (inactive)	> 100 µM (inactive)	> 100 µM (inactive)	> 100 µM (inactive)	> 100 µM (inactive)	> 100 µM (inactive)	> 100 µM (inactive)	> 100 µM (inactive)	> 100 µM (inactive)
C[C@H]1C(=O)O[C@@H]2CCN3CC=C(COC(=O)[C@](C)(O)[C@@]1(C)O)[C@H]23	> 100 µM (inactive)	> 100 µM (inactive)	> 100 µM (inactive)		> 100 µM (inactive)	> 100 µM (inactive)	> 100 µM (inactive)	> 100 µM (inactive)	> 100 µM (inactive)	> 100 µM (inactive)	> 100 µM (inactive)	> 100 µM (inactive)	> 100 µM (inactive)	> 100 µM (inactive)	> 100 µM (inactive)	> 100 µM (inactive)	> 100 µM (inactive)	> 100 µM (inactive)		> 100 µM (inactive)
C/C1=C\[C@@H](C)C[C@@H](C)OC(=O)[C@@H](C)NC(=O)[C@H](Cc2ccc(O)c(Br)c2)N(C)C(=O)CNC(=O)[C@H](C)C1	< 0.01 µM (active)	< 0.01 µM (active)	0.182 µM (active)	0.0328 µM (active)	0.0366 µM (active)	< 0.01 µM (active)	< 0.0193 µM (active)	0.0114 µM (active)	0.0284 µM (active)	0.295 µM (active)	< 0.01 µM (active)	< 0.01 µM (active)	0.026 µM (active)		< 0.01 µM (active)	0.0641 µM (active)	0.363 µM (active)	< 0.01 µM (active)		0.126 µM (active)
COc1ccc(OC)c2c1C(=O)C(Cl)=C(N1CCN(CCOCCO)CC1)C2=O		7.31 µM (inactive)	6.12 µM (inactive)	19.8 µM (inactive)	26.5 µM (inactive)	2.94 µM (inactive)	13.6 µM (inactive)	18.7 µM (inactive)	16.1 µM (inactive)	16 µM (inactive)	15.9 µM (inactive)	21.4 µM (inactive)	16.4 µM (inactive)	7.6 µM (inactive)	17.3 µM (inactive)	14.8 µM (inactive)	18.6 µM (inactive)	14.4 µM (inactive)	3.21 µM (inactive)	4.65 µM (inactive)
